Assays:
Histone deacetylase 9 = Histone deacetylase 9 (Homo sapiens, UniProt Q9UKV0); assay: ChEBML_1684755
Histone deacetylase 1 = Histone deacetylase 1 (Homo sapiens, UniProt Q13547); assay: Inhibition of HDAC1 (unknown origin)
[1] = molecular target: Histone deacetylase 8 (Homo sapiens) (UniProt Q9BY41); assay: Inhibition of recombinant human HDAC8 using Boc-Lys (Ac)-AMC substrate by fluorescence assay
Sequence of Histone deacetylase 8 (Homo sapiens) (Q9BY41 whole entry, looked up): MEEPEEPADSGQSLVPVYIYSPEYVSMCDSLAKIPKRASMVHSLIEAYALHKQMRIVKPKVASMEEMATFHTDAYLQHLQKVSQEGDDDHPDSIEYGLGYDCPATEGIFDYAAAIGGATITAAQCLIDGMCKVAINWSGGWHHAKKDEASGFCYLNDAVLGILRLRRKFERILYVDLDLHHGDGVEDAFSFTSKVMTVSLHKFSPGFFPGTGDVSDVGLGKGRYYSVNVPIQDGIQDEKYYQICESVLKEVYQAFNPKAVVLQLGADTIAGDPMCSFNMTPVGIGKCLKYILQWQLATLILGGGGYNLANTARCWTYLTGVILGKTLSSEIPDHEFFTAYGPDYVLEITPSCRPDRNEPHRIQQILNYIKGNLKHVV

Sequence of Histone deacetylase 9 (Q9UKV0 whole entry): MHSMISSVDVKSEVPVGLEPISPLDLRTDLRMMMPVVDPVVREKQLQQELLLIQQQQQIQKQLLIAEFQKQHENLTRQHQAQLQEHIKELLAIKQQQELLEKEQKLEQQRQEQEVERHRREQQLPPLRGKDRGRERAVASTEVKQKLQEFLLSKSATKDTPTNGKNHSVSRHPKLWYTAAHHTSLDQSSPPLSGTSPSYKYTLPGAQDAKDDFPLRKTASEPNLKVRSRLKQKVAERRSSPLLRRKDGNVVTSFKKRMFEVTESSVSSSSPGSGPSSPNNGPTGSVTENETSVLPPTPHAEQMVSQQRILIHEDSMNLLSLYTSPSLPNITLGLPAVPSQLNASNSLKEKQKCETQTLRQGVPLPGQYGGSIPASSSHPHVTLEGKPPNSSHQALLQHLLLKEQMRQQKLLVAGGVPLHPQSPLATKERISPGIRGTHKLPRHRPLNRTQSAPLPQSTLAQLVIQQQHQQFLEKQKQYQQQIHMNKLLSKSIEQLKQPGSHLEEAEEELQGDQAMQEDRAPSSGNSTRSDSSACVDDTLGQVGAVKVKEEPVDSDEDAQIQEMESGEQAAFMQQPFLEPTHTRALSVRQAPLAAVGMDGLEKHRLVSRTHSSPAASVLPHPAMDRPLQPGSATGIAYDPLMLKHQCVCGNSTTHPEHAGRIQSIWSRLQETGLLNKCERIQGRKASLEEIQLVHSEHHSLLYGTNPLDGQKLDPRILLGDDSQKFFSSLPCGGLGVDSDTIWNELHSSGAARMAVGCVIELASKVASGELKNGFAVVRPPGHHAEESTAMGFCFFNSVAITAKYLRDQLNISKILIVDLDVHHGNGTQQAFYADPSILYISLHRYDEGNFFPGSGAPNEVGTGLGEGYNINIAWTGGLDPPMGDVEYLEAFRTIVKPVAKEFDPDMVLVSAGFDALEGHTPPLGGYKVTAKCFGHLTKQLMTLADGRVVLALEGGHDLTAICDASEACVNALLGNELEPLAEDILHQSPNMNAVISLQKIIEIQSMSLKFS
Sequence of Histone deacetylase 1 (Q13547 whole entry): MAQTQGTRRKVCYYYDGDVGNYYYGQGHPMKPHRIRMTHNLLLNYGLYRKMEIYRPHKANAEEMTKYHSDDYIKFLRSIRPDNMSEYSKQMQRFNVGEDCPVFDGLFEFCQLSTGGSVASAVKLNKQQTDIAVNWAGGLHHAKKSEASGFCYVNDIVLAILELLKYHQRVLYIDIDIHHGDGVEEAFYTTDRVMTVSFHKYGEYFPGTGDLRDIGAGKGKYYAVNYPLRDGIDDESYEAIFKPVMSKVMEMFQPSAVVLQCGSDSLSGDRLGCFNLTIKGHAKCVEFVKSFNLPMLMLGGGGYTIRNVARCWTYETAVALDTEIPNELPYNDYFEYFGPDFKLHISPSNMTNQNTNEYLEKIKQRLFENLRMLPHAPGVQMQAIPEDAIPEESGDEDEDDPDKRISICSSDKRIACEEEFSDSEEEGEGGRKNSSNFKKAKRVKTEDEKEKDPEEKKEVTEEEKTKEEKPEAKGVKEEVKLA

IC50 (Histone deacetylase 9) [nM]	IC50 (Histone deacetylase 1) [nM]	IC50 [1] [nM]	Structure (SMILES)
70	9000	–	Cc1nc2ccccc2n1Cc1ccc(C(=O)NO)cc1F
–	–	280	O=C(NO)c1ccc(Cn2cc(-c3ccc(CN4CCCC4)cc3)nn2)cc1
